Measurements from PMC11211886 (Frontiers in Pharmacology, 2024).
“And” between values parts separate entries of the source, which are not always exact repeats. Identical values can stand only once.

How the values were obtained:
[1] = Whole blood-to-plasma partition, rat blood; type: in vitro ADME
Method: The whole blood and plasma samples were incubated at 37°C for up to 1 h. Serial samples (150 µL) were collected at different time points (0, 10, and 60 min) and transferred into new tubes. The whole blood samples were then centrifuged at 1700 g for 15 min to harvest plasma.

CYP2B6 = biological target: T1, CYP2B6 (Homo sapiens, UniProt P20813); experiment: Reversible CYP inhibition in HLM, CYP2B6 (bupropion); type: in vitro ADME; conditions: for enzyme activity remaining: CYP2B6, HLM
T1 construct: tissue Life Technologies (Durham, NC, USA); host or cells: human liver microsomes
T1 sequence (P20813 1-491): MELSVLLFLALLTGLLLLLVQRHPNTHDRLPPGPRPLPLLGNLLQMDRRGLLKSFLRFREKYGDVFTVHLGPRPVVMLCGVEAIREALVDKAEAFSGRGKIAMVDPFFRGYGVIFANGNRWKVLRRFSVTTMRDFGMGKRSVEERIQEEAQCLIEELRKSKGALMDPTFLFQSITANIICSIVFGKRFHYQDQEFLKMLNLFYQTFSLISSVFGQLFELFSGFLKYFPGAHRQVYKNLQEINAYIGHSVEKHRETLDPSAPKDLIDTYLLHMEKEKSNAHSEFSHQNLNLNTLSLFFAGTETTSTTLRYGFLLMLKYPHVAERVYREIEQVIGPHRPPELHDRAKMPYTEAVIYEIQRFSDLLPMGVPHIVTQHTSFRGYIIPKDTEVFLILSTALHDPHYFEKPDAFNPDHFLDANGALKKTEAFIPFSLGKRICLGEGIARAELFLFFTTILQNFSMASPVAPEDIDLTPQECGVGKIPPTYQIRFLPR
Method: (§1) The markers used to determine the activities of CYP isoforms were phenacetin O-deethylation for CYP1A2 (probe substrate: 50 µM phenacetin), bupropion hydroxylation for CYP2B6 (probe substrate: 70 µM bupropion), paclitaxel 6α-hydroxylation for CYP2C8 (probe substrate: 10 µM paclitaxel), diclofenac 4′-hydroxylation for CYP2C9 (probe substrate: 5 µM diclofenac), S-(+)-mephenytoin 4′-hydroxylation for CYP2C19 (probe substrate: 20 µM S-(+)-mephenytoin), dextromethorphan O-demethylation for CYP2D6 (probe substrate: 6 µM dextromethorphan), chlorzoxazone 6′-hydroxylation for CYP2E1 (probe substrate: 70 µM chlorzoxazone), and testosterone 6β-hydroxylation and midazolam 1′-hydroxylation for CYP3A4/5 (probe substrate: 45 µM testosterone and 5 µM midazolam). […] Alpha-naphthoflavone (0.04 µM), 2-phenyl-2-(1-piperidinyl)propane (5 µM), quercetin (1 µM), sulfaphenazole (0.5 µM), ticlopidine (4 µM), quinidine (0.2 µM), diethyldithiocarbamate (20 µM), and ketoconazole (0.05 µM) were used as positive inhibitors of CYP1A2, 2B6, 2C8, 2C9, 2C19, 2D6, 2E1, and 3A4, respectively. The vehicle control was prepared in the same composition as inhibitor solutions but free of inhibitors. The concentrations of probe substrates were close to Km values that were determined in-house and within the range recommended by the FDA ([Huang et al., 2007]). Reaction mixtures were incubated at 37°C for 5, 20, or 30 min, depending on the probe substrates of CYP isoforms. The reactions were terminated by adding cold acetonitrile containing IS, and the terminated incubation mixtures were centrifuged at 3,000 g for 10 min before LC-MS/MS analysis.

CYP2C9 = biological target: T2, CYP2C9 (Homo sapiens, UniProt P11712); experiment: Reversible CYP inhibition in HLM, CYP2C9 (diclofenac); type: in vitro ADME; conditions: for enzyme activity remaining: CYP2C9, HLM
T2 construct: tissue Life Technologies (Durham, NC, USA); host or cells: human liver microsomes
Method: as §1

CYP1A2 mRNA = experiment: in vitro; conditions: human; for EC50 at 48 h: EC50, CYP1A2 expression
Method: (§2) […] […] […] Enzyme activity for each CYP isoform was reported as a fold change over vehicle control and the percent of positive control (detailed calculation in Supplementary 1.1). Hepatocytes were harvested with a lysis buffer from RNeasy 96 Kit (Qiagen Inc., Germantown, MD, USA) to isolate RNA, which was analyzed by real-time quantitative polymerase chain reaction (RT-PCR). […] Emax (the maximal observed induction) and EC50 (the concentration that supports half-maximal induction) were estimated by non-linear regression of fold increase in CYP mRNA expression versus concentration plots.
(§3) % of positive control = [(fold change in treated sample)-1] / [(fold change in positive control)-1] × 100
(§4) Based on the gene expression, a minimum of 4-fold increase of positive control compared to vehicle control, a minimum of 2-fold increase of the test article compared vehicle control and increased in a concentration-dependent manner was considered as the cutoff for a positive signal in in vitro induction assay.

CYP2C8 mRNA = experiment: CYP induction in human hepatocytes, CYP2C8 mRNA (RT-PCR)
Method: as §2, §3, §4

[2] = male, ICR, mouse, in vivo, iv
[3] = humans, RP2D 30 mg, phase Ib (n = 90); ref European Society for Medical Oncology, 2021; cited from earlier work
[4] = HLM, reversible, without pre-incubation

T2 sequence (P11712 whole entry): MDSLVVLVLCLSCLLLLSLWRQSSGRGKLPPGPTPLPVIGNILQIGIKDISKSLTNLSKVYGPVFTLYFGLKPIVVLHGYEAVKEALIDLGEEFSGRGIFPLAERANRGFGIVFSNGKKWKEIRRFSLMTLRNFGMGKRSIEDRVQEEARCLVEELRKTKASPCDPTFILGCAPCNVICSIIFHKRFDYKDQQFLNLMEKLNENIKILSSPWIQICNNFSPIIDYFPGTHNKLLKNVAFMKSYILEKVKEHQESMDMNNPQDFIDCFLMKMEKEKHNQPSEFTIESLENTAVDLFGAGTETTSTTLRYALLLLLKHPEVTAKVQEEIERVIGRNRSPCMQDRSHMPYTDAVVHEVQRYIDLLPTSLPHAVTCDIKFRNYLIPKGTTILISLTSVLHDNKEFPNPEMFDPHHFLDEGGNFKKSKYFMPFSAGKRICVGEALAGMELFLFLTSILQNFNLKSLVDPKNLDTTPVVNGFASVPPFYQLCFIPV

C[C@H](Nc1ncnc(N)c1C#N)c1cc2ncc(Cl)n2nc1-c1ccccc1 [Amdizalisib]
RB ([1]; rat blood, 1 μM, 0 min): 1.08
RB ([1]; rat blood, 1 μM, 60 min): 1.03
fuB ([1]; rat blood, 10 min): 8.41%
fuB ([1]; rat, 0 min, 1 µM): 9.11%
fup ([1]; rat, 1 µM): 0.0980
RB ([1]; rat, 10 min, 1 µM): 1.16
fuB ([1]; rat, 60 min, 1 µM): 9.49%
enzyme activity remaining (CYP2B6; 0.4 μM): 100% and 98.9%
enzyme activity remaining (CYP2B6; 2 μM): 96.2% and 92.1%
enzyme activity remaining (CYP2B6; 5 μM): 97.4% and 95.1%
enzyme activity remaining (CYP2B6; 10 μM): 97.7% and 96.6%
enzyme activity remaining (CYP2B6; 25 μM): 87.6%
enzyme activity remaining (CYP2B6; 50 μM): 79.7% and 77.1%
IC50 (CYP2B6; [4]): > 50 µM
enzyme activity remaining (CYP2C9; 0.08 μM): 98.3% and 99.7%
enzyme activity remaining (CYP2C9; 0.4 μM): 94.2% and 95.6%
enzyme activity remaining (CYP2C9; 2 μM): 82.6%
enzyme activity remaining (CYP2C9; 10 μM): 53.7% and 52.8%
enzyme activity remaining (CYP2C9; 50 μM): 17.2% and 16.0%
IC50 (CYP2C9; [4]): 10.7 µM
induction on CYP1A2 mRNA expression (CYP1A2 mRNA; both, hepatocytes, 48 h, 20 µM): >2-fold induction on CYP1A2, 2B6, 3A4, 2C9 mRNA expression at 20 uM
EC50 at 48 h (CYP1A2 mRNA; female): 9.57 µM
Gene expression Percent of PC (%) (CYP1A2 mRNA; male, 48 h, 1 µM): 3.60%
Gene expression Percent of PC (%) (CYP1A2 mRNA; male, 48 h, 3 µM): 0.30%
Gene expression Percent of PC (%) (CYP1A2 mRNA; male, 48 h, 10 µM): 10.7%
Gene expression Percent of PC (%) (CYP1A2 mRNA; male, 48 h, 20 µM): 8.20%
Gene expression Percent of PC (%) (CYP1A2 mRNA; male, 48 h, 30 µM): 14.2%
EC50 at 48 h (CYP1A2 mRNA; male): 7.73 µM
Gene expression Percent of PC (%) (CYP2C8 mRNA; CYP 2C8, donor four, 3 µM): 14.5%
Gene expression Percent of PC (%) (CYP2C8 mRNA; female, human, 48 h, 0.3 µM): 7.24%
Gene expression Percent of PC (%) (CYP2C8 mRNA; female, human, 48 h, 3 µM): 13.5%
Gene expression Percent of PC (%) (CYP2C8 mRNA; female, human, 48 h, 20 µM): 3.97%
Gene expression Percent of PC (%) (CYP2C8 mRNA; male, human, 48 h, 3 µM): 9.01%
CL as % of the hepatic blood flow [2]: 16.3%
Grade 3 diarrhea [3]: 2.2%
colitis [3]: no colitis cases were reported
serious GI toxicity [3]: less than 5%
